Experimental data taken from PubChem BioAssay (NCI).
“And” between values parts separate entries of the source, which are not always exact repeats. Identical values can stand only once.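 All cell lines were grown in 96-well plates and treated with compound for 48 hours. GI50: concentration for 50% inhibition of growth. TGI marks complete inhibition of growth.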 Where a SMILES comes first, the peptide text is derived from it. [ ]: non-standard residue; d: D form. The star is where a group is joined. ξ: configuration not given here. NMeF = CN[C@@H](Cc1ccccc1)C(=O)O; NMeN = CN[C@@H](CC(N)=O)C(=O)O; NMeV = CN[C@H](C(=O)O)C(C)C; ξNMeV = CNC(C(=O)O)C(C)C; Boc = CC(C)(C)OC(=O)*; ξNMeA = CNC(C)C(=O)O; ξV = CC(C)C(N)C(=O)O

How the values were obtained:
Assay in all cases: NCI tumour cell line growth inhibition, 48 h
SR leukemia = system: SR leukemia
HT29 colon = system: HT29 colon
EKVX NSCLC = system: EKVX NSCLC
K-562 leukemia = system: K-562 leukemia
UO-31 renal = system: UO-31 renal
DMS 114 small cell lung = system: DMS 114 small cell lung
OVCAR-3 ovarian = system: OVCAR-3 ovarian
CAKI-1 renal = system: CAKI-1 renal
KM12 colon = system: KM12 colon
UACC-257 melanoma = system: UACC-257 melanoma
SNB-19 CNS = system: SNB-19 CNS
CCRF-CEM leukemia = system: CCRF-CEM leukemia
KM20L2 colon = system: KM20L2 colon
NCI/ADR-RES ovarian = system: NCI/ADR-RES ovarian
IGROV1 ovarian = system: IGROV1 ovarian
SK-OV-3 ovarian = system: SK-OV-3 ovarian
SW-620 colon = system: SW-620 colon
SF-268 CNS = system: SF-268 CNS
A498 renal = system: A498 renal
A549 NSCLC = system: A549 NSCLC
MALME-3M melanoma = system: MALME-3M melanoma
M14 melanoma = system: M14 melanoma
HOP-92 NSCLC = system: HOP-92 NSCLC
HOP-62 NSCLC = system: HOP-62 NSCLC
786-0 renal = system: 786-0 renal
SNB-75 CNS = system: SNB-75 CNS
OVCAR-8 ovarian = system: OVCAR-8 ovarian
MDA-N = system: MDA-N
SNB-78 CNS = system: SNB-78 CNS
MOLT-4 leukemia = system: MOLT-4 leukemia
DLD-1 colon = system: DLD-1 colon
SN12C renal = system: SN12C renal
NCI-H23 lung = system: NCI-H23 lung
RXF 393 renal = system: RXF 393 renal
MDA-MB-435 = system: MDA-MB-435
DMS 273 small cell lung = system: DMS 273 small cell lung
SF-539 CNS = system: SF-539 CNS
HS 578T breast = system: HS 578T breast
HL-60(TB) leukemia = system: HL-60(TB) leukemia
SF-295 CNS = system: SF-295 CNS
ACHN renal = system: ACHN renal
LXFL 529 NSCLC = system: LXFL 529 NSCLC
DU-145 prostate = system: DU-145 prostate
UACC-62 melanoma = system: UACC-62 melanoma
NCI-H460 lung = system: NCI-H460 lung
MDA-MB-231 breast = system: MDA-MB-231 breast
XF 498 CNS = system: XF 498 CNS
SK-MEL-5 melanoma = system: SK-MEL-5 melanoma
OVCAR-5 ovarian = system: OVCAR-5 ovarian
RPMI-8226 leukemia = system: RPMI-8226 leukemia
COLO 205 colon = system: COLO 205 colon
U251 CNS = system: U251 CNS
NCI-H226 lung = system: NCI-H226 lung
SK-MEL-28 melanoma = system: SK-MEL-28 melanoma
HCT-15 colon = system: HCT-15 colon
SK-MEL-2 melanoma = system: SK-MEL-2 melanoma
MCF7 breast = system: MCF7 breast
NCI-H522 lung = system: NCI-H522 lung
TK-10 renal = system: TK-10 renal
OVCAR-4 ovarian = system: OVCAR-4 ovarian
T-47D breast = system: T-47D breast
BT-549 breast = system: BT-549 breast
HCC-2998 colon = system: HCC-2998 colon
PC-3 prostate = system: PC-3 prostate
HCT-116 colon = system: HCT-116 colon
LOX IMVI melanoma = system: LOX IMVI melanoma

SMILES: COC(=O)C(C)N(C)C(=O)[C@H](CC(N)=O)N(C)C(=O)[C@@H]1CCCN1C(=O)[C@H](C(C)C)N(C)C(=O)C(C(C)C)N(C)C(=O)[C@H](Cc1ccccc1)N(C)C(=O)C(NC(=O)OC(C)(C)C)C(C)C (stereo partly specified) (Boc-[ξV][NMeF][ξNMeV][NMeV]P[NMeN][ξNMeA]-OMe)
- GI50 (SR leukemia): 0.005 µM
- TGI (SR leukemia): 50 µM and 21.6 µM
- GI50 (HT29 colon): 23.4 µM
- TGI (HT29 colon): 50 µM and 57.7 µM
- GI50 (EKVX NSCLC): 23.7 µM
- TGI (EKVX NSCLC): > 50 µM and 61.5 µM
- GI50 (K-562 leukemia): 21 µM
- TGI (K-562 leukemia): 50 µM and 57.2 µM
- GI50 (UO-31 renal): 17.3 µM
- TGI (UO-31 renal): 50 µM and 31.1 µM
- TGI (DMS 114 small cell lung): 17.1 µM
- GI50 (OVCAR-3 ovarian): 17.1 µM
- TGI (OVCAR-3 ovarian): 50 µM and 31.2 µM
- GI50 (CAKI-1 renal): 26.9 µM
- TGI (CAKI-1 renal): > 50 µM and 55.3 µM
- GI50 (KM12 colon): 18.8 µM
- TGI (KM12 colon): 22.8 µM and 37.3 µM
- GI50 (UACC-257 melanoma): 19.4 µM
- TGI (UACC-257 melanoma): 50 µM and 39.4 µM
- GI50 (SNB-19 CNS): 16.9 µM
- TGI (SNB-19 CNS): 50 µM and 30.8 µM
- GI50 (CCRF-CEM leukemia): 10.8 µM
- TGI (CCRF-CEM leukemia): 50 µM and 33.1 µM
- TGI (KM20L2 colon): > 100 µM
- TGI (NCI/ADR-RES ovarian): > 50 µM
- GI50 (IGROV1 ovarian): 16.2 µM
- TGI (IGROV1 ovarian): 50 µM and 29.8 µM
- GI50 (SK-OV-3 ovarian): 29.4 µM
- TGI (SK-OV-3 ovarian): 50 µM and > 100 µM
- GI50 (SW-620 colon): 13 µM
- TGI (SW-620 colon): 50 µM and 25.7 µM
- GI50 (SF-268 CNS): 15.6 µM
- TGI (SF-268 CNS): 50 µM and 29 µM
- GI50 (A498 renal): 21.9 µM
- TGI (A498 renal): 50 µM and 67 µM
- GI50 (A549 NSCLC): > 100 µM
- TGI (A549 NSCLC): > 100 µM
- TGI (MALME-3M melanoma): 32.5 µM
- TGI (M14 melanoma): 50 µM and 30.6 µM
- GI50 (HOP-92 NSCLC): 14.6 µM
- TGI (HOP-92 NSCLC): 50 µM and 27.8 µM
- GI50 (HOP-62 NSCLC): 19.1 µM
- TGI (HOP-62 NSCLC): 31.5 µM and 38.8 µM
- GI50 (786-0 renal): 29.7 µM
- TGI (786-0 renal): 50 µM and > 100 µM
- GI50 (SNB-75 CNS): 17.2 µM
- TGI (SNB-75 CNS): 21.1 µM and 31.9 µM
- TGI (OVCAR-8 ovarian): 31.3 µM
- TGI (MDA-N): 50 µM
- TGI (SNB-78 CNS): 40.4 µM
- GI50 (MOLT-4 leukemia): 11.1 µM
- TGI (MOLT-4 leukemia): 21.5 µM and 33.6 µM
- TGI (DLD-1 colon): 31.8 µM
- GI50 (SN12C renal): 17.4 µM
- TGI (SN12C renal): 50 µM and 33.5 µM
- GI50 (NCI-H23 lung): 20.4 µM
- TGI (NCI-H23 lung): 50 µM and 40.4 µM
- TGI (RXF 393 renal): 29.8 µM
- TGI (MDA-MB-435): 50 µM
- TGI (DMS 273 small cell lung): 28.9 µM
- GI50 (SF-539 CNS): 18.1 µM
- TGI (SF-539 CNS): 50 µM and 32.4 µM
- TGI (HS 578T breast): 23.6 µM
- GI50 (HL-60(TB) leukemia): 4.54 µM
- TGI (HL-60(TB) leukemia): 44.7 µM and 17.4 µM
- GI50 (SF-295 CNS): 32.8 µM
- TGI (SF-295 CNS): 26.3 µM and > 100 µM
- GI50 (ACHN renal): > 100 µM
- TGI (ACHN renal): > 100 µM
- TGI (LXFL 529 NSCLC): 10.3 µM
- TGI (DU-145 prostate): 50 µM
- GI50 (UACC-62 melanoma): 17.5 µM
- TGI (UACC-62 melanoma): 20.3 µM and 36.8 µM
- GI50 (NCI-H460 lung): 17.4 µM
- TGI (NCI-H460 lung): 50 µM and 39 µM
- TGI (MDA-MB-231 breast): 50 µM
- TGI (XF 498 CNS): 28.9 µM
- GI50 (SK-MEL-5 melanoma): 15.2 µM
- TGI (SK-MEL-5 melanoma): 50 µM and 28.5 µM
- GI50 (OVCAR-5 ovarian): 97.2 µM
- TGI (OVCAR-5 ovarian): > 100 µM
- TGI (RPMI-8226 leukemia): 41.9 µM
- GI50 (COLO 205 colon): 17.5 µM
- TGI (COLO 205 colon): 50 µM and 35.6 µM
- GI50 (U251 CNS): 16.9 µM
- TGI (U251 CNS): 23 µM and 30.5 µM
- GI50 (NCI-H226 lung): 20.8 µM
- TGI (NCI-H226 lung): 40.2 µM and 36.6 µM
- TGI (SK-MEL-28 melanoma): 50 µM and 30.5 µM
- GI50 (HCT-15 colon): 29.8 µM
- TGI (HCT-15 colon): 50 µM and > 100 µM
- TGI (SK-MEL-2 melanoma): 20.1 µM and 22.9 µM
- TGI (MCF7 breast): 50 µM
- TGI (NCI-H522 lung): 50 µM and 29.8 µM
- GI50 (TK-10 renal): 18.4 µM
- TGI (TK-10 renal): 50 µM and 51.8 µM
- GI50 (OVCAR-4 ovarian): 31.1 µM
- TGI (OVCAR-4 ovarian): > 50 µM and 87.5 µM
- TGI (T-47D breast): 50 µM
- TGI (BT-549 breast): 32.3 µM
- GI50 (HCC-2998 colon): 16.7 µM
- TGI (HCC-2998 colon): 50 µM and 31.1 µM
- TGI (PC-3 prostate): 50 µM
- TGI (HCT-116 colon): 50 µM and 31.1 µM
- GI50 (LOX IMVI melanoma): 3.1 µM
- TGI (LOX IMVI melanoma): 20.7 µM and 19.2 µM
